The text below walks through data of patent US8461202B2, “Composition for treating infectious diseases” (priority 2007, dated 2013).

The target of one assay is T1, H. pylori flavodoxin (Helicobacter pylori, UniProt O25776).
T1 construct: made in house; host or cells: E. coli BL21 (flavodoxin); E. coli JVQ2 (PFOR); E. coli BL21(DE3) (FqrB)
T1 sequence (O25776 1-164): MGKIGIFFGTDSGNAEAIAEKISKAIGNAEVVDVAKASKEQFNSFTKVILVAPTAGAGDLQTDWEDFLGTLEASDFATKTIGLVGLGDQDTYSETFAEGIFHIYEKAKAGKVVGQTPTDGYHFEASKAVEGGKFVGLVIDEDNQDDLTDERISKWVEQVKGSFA
Description: Inhibition of the sequential electron transfer reaction pyruvate-PFOR-flavodoxin-FqrB-NADP+ (NADPH formation at 340 nm). The class given is biochemical. The conditions noted are these: 50 μM compound; anaerobic; absorbance at 340 nm; 10 μM Fld. The source says: Measurement of the absorbance (A) (AU is the unit of absorbance) at 340 nm against time (t) in seconds (s).
Flavodoxin is an essential protein for Helicobacter pylori survival as it participates in a fundamental reaction for obtaining energy from the oxidative decarboxylation of pyruvate. In this reaction, flavodoxin transfers electrons between the PFOR enzyme and the FqrB enzyme, which releases them to NADP^+.
The sequential reaction of electron transfer between pyruvate, PFOR, flavodoxin, FqrB and NADP^+ (activity assay) was followed spectroscopically by the appearance of the signal at 340 nm with the formation of NADPH. The reaction mixture contained 100 mM potassium phosphate pH 7, 10 mM pyruvate, 0.18 mM CoA, 1 mM MgCl, 0.3 mM NADP^+, 0.09 mg/ml PFOR, 10 μM Fld and 0.15 μM FqrB. The mixture, except CoA, was placed in a cuvette specially designed for anaerobic conditions. Oxygen was removed by means of 5 minute cycles with alternate flows of vacuum and argon. The reaction was started by the addition of 0.18 mM coenzyme A (CoA) that was held in a compartment inside the same cuvette. The reaction completed 15 minutes after adding the CoA reagent.
The inhibition assays were carried out in the same conditions as the activity assays previously described, adding an additional 50 μM of the disclosed compound of the general formula shown in (II) to the reaction cuvette.

In another assay the target is T2, flavodoxin of H. pylori (Helicobacter pylori, UniProt O25776).
T2 construct: made in house; host or cells: E. coli BL21
Nature of the assay: Binding to flavodoxin by isothermal titration calorimetry (ITC). As to conditions: 50 mM EPPS buffer, pH 9 with 7% DMSO, protein around 20 μM, read-out: affinity for flavodoxin (affinity constant). As to the method:
The specific binding of the inhibitors of the present invention to flavodoxin of H. pylori was confirmed by isothermal titration calorimetry (ITC). This technique not only measures the affinity of each compound for the target protein, but also determines the contribution of the enthalpic and entropic components of binding.
The binding experiments were carried out in 50 mM EPPS buffer, pH 9 with 7% DMSO, with the inhibitor in the injection syringe at a concentration of 300-500 μM, and the protein around 20 μM in the measurement cell.

Turning to `O=[N+]([O-])/C=C/c1cc(C(F)(F)F)cc(C(F)(F)F)c1` [(II)], on H. pylori flavodoxin, the “inhibition of product (NADPH) formation in the essential reaction of H. pylori” value was “almost total”. In addition, the Kd on flavodoxin of H. pylori is 8 µM.
